{"source": "patent US10857113B2", "about": "“Bezafibrate for the treatment of cancer” (Cipla Limited, priority 2016, dated 2020)", "key": {"[1]": {"system": "human tumor cell models for RCC", "test": "In vitro 2D assay, all cell lines tested", "format": "cell-based", "conditions": "2D model; for IC50: Homo sapiens", "text": "(§1) Cell lines RXF 1183L, RXF 1220L, RXF 1781L, RXF 393L and RXF 486L were established at Oncotest from the corresponding human patient-derived xenograft. The cell lines 786-O, A-498, Caki-1 and SN12C were purchased from NCI (National Cancer Institute, Bethesda, Md., USA). ACHN was purchased from ECACC (European Collection of Cell Cultures, Salisbury, UK). Authenticity of cell lines was confirmed at the DSMZ by STR (short tandem repeat) analysis, a PCR based DNA-fingerprinting methodology.\n(§2) Cell lines were routinely passaged once or twice weekly and maintained in culture for up to 20 passages. All cells were grown at 37° C. in a humidified atmosphere with 5% CO2 in RPMI 1640 medium (25 mM HEPES, with L-glutamine, # FG1385, Biochrom, Berlin, Germany) supplemented with 10% (v/v) fetal calf serum (Sigma, Taufkirchen, Germany) and 0.1 mg/mL gentamicin (Life Technologies, Karlsruhe, Germany).\nBezafibrate was dissolved at a concentration of 100 mM in 100% Methanol and next 1:5 diluted with cell culture media (20 mM, 20% Methanol). Starting with this solution, serial dilutions (1:1.6) were prepared with cell culture medium. Next, 150 μL of the serial dilutions were transferred to the assay plates upon removing the cell culture media of each well (complete change of medium on assay plates). […] The maximum methanol concentrations were 6% and 10%. No precipitation was observed.\n(§3) Cells were harvested from exponential phase cultures, counted and plated in 96-well flat-bottom microtiter plates at a cell density of 4,000-12,000 cells/well depending on the cell line's growth rate. After a 24 hour recovery period to allow the cells to resume exponential growth, test compounds were added. Compounds were applied at 8 to 10 concentrations in duplicate and treatment continued for 96 hour. After 96 hour treatment of cells, 20 μL/well CellTiter-Blue® reagent was added. Following an incubation period of up to four hours, fluorescence (FU) was measured by using the Enspire Multimode Plate Reader (excitation λ=531 nm, emission λ=615 nm).\n(§4) For calculations, the mean values of duplicate/quadruplicate (untreated control) data were used. Sigmoidal concentration-response curves were fitted to the data points (T/C values) obtained for each cell line using 4 parameter non-linear curve fit."}, "[2]": {"system": "A498 cells", "test": "In vivo animal efficacy study, subcutaneous tumor fragment xenograft", "design": "species or system female athymic nude mice", "conditions": "sunitinib 20 mg/kg, bezafibrate 150 mg/kg, p.o. q.d. × 21", "procedure": "Healthy 10 female athymic nude mice were recruited for the donor cell inoculation. Animals were subcutaneously injected at flank region with 10 million A498 cells suspended in 200 μl of media and matrigel. Animals were monitored for solid tumor growth. […] Tumors were fragmented in to ˜30 mg size. […] [table] The tumor sizes were measured weekly twice from the date of tumor appearance till the end of the experiment. Tumor size was measured by digital vernier caliper (MITUTOYO) by measuring length (L=longest axis) and width (W=shortest axis). Tumor Volume (V) was calculated using formula: […] Mean tumor volume and % tumor growth inhibition (% TGI) were then calculated (SEM=standard error of mean)."}, "[3]": {"system": "RXF 1781L", "test": "In vitro 2D assay (CellTiter-Blue)", "format": "cell-based", "conditions": "Homo sapiens, 2D model, 96 hour treatment", "text": "as §1, §2\n(§5) Bezafibrate was dissolved at a concentration of 100 mM in 100% Methanol and next 1:5 diluted with cell culture media (20 mM, 20% Methanol). Starting with this solution, serial dilutions (1:1.6) were prepared with cell culture medium. Next, 150 μL of the serial dilutions were transferred to the assay plates upon removing the cell culture media of each well (complete change of medium on assay plates). Thus the final test concentrations were 10,240, 6,400, 4,000, 2,500, 1,563, 977, 610, and 381 μM. The maximum methanol concentrations were 6% and 10%. No precipitation was observed.\nas §3, §4"}, "[4]": {"system": "RXF 1183L", "test": "In vitro 2D assay (CellTiter-Blue)", "format": "cell-based", "conditions": "Homo sapiens, 2D model, 96 hour treatment", "text": "as §1, §2, §5, §3, §4"}, "[5]": {"system": "A-498", "test": "In vitro 2D assay (CellTiter-Blue)", "format": "cell-based", "conditions": "Homo sapiens, A498, 2D model, 96 hour treatment", "text": "as §1, §2, §5, §3, §4"}, "[6]": {"system": "ACHN", "test": "In vitro 2D assay (CellTiter-Blue)", "format": "cell-based", "conditions": "Homo sapiens, 2D model", "text": "as §1, §2, §5, §3, §4"}, "[7]": {"system": "RXF 486L", "test": "In vitro 2D assay (CellTiter-Blue)", "format": "cell-based", "conditions": "Homo sapiens, 2D model, 96 hour treatment", "text": "as §1, §2, §5, §3, §4"}, "[8]": {"system": "786-O", "test": "In vitro 2D assay (CellTiter-Blue)", "format": "cell-based", "conditions": "Homo sapiens, 786-0, 2D model, 96 hour treatment", "text": "as §1, §2, §5, §3, §4"}, "[9]": {"system": "SN12C", "test": "In vitro 2D assay (CellTiter-Blue)", "format": "cell-based", "conditions": "Homo sapiens, 2D model, 96 hour treatment", "text": "as §1, §2, §5, §3, §4"}, "[10]": {"system": "RXF 393L", "test": "In vitro 2D assay (CellTiter-Blue)", "format": "cell-based", "conditions": "Homo sapiens, 2D model, 96 hour treatment", "text": "as §1, §2, §5, §3, §4"}, "[11]": {"system": "Caki-1", "test": "In vitro 2D assay (CellTiter-Blue)", "format": "cell-based", "conditions": "Homo sapiens, 2D model, 96 hour treatment", "text": "as §1, §2, §5, §3, §4"}, "[12]": {"system": "RXF 1220L", "test": "In vitro 2D assay (CellTiter-Blue)", "format": "cell-based", "conditions": "Homo sapiens, 2D model", "text": "as §1, §2, §5, §3, §4"}, "[13]": {"conditions": "background statement; cited from earlier work"}, "[14]": {"conditions": "second run 381 to 10,240 μM, read-out: Absolute IC50"}, "[15]": {"conditions": "96 hour treatment, read-out: Relative IC50"}, "[16]": {"conditions": "96 hour treatment, second run 381 to 10,240 μM, read-out: Absolute IC50"}, "[17]": {"conditions": "first run 93 to 4,000 μM, read-out: IC50"}}, "note": "Where two headings read alike, the source gives them in different places.", "data": [{"molecule": "CC(C)(Oc1ccc(CCNC(=O)c2ccc(Cl)cc2)cc1)C(=O)O", "note": "[Bezafibrate]", "values": [{"measurement": "IC50 values, overall anti-cancer activity", "setting": "[1]; overall statement", "result": "low mM range"}, {"measurement": "IC50", "setting": "[1]; geometric mean over 10 cell lines, second run 381 to 10,240 μM, read-out: Geometric mean absolute IC50", "result": 1220, "unit": "µM"}, {"measurement": "IC50", "setting": "[1]; geometric mean over 10 cell lines, read-out: Geometric mean relative IC50", "result": 1560, "unit": "µM"}, {"measurement": "IC50", "setting": "[1]; first run 93 to 4,000 μM, read-out: Geometric mean absolute IC50", "result": 1780, "unit": "µM"}, {"measurement": "Tumor Growth Inhibition", "setting": "[2]; Day 1", "result": 0.44, "unit": "%"}, {"measurement": "Tumor Volume, Mean", "setting": "[2]; Day 1", "result": 146.92, "unit": "mm^3"}, {"measurement": "Tumor Volume, Mean", "setting": "[2]; Day 6", "result": 198.50, "unit": "mm^3"}, {"measurement": "Tumor Growth Inhibition", "setting": "[2]; Day 9", "result": 21.70, "unit": "%"}, {"measurement": "Tumor Volume, Mean", "setting": "[2]; Day 9", "result": 363.14, "unit": "mm^3"}, {"measurement": "Tumor Growth Inhibition", "setting": "[2]; Day 13", "result": 24.92, "unit": "%"}, {"measurement": "Tumor Volume, Mean", "setting": "[2]; Day 13", "result": 463.30, "unit": "mm^3"}, {"measurement": "Tumor Growth Inhibition", "setting": "[2]; Day 16", "result": 26.18, "unit": "%"}, {"measurement": "Tumor Volume, Mean", "setting": "[2]; Day 16", "result": 709.65, "unit": "mm^3"}, {"measurement": "Tumor Growth Inhibition", "setting": "[2]; Day 20", "result": 31.59, "unit": "%"}, {"measurement": "Tumor Volume, Mean", "setting": "[2]; Day 20", "result": 875.99, "unit": "mm^3"}, {"measurement": "Anti-tumor efficacy / effect in inhibiting tumor growth (in words)", "setting": "[2]", "result": "shows anti-tumor efficacy"}, {"measurement": "IC50", "setting": "[3]; read-out: Relative IC50", "result": 1950, "unit": "µM"}, {"measurement": "IC50", "setting": "[3]; [14]", "result": 1860, "unit": "µM"}, {"measurement": "IC50", "setting": "[4]; [14]", "result": 960, "unit": "µM"}, {"measurement": "IC50", "setting": "[4]; read-out: Relative IC50", "result": 1060, "unit": "µM"}, {"measurement": "IC50", "setting": "[5]; [14]", "result": 2120, "unit": "µM"}, {"measurement": "IC50", "setting": "[5]; read-out: Relative IC50", "result": 2280, "unit": "µM"}, {"measurement": "IC50", "setting": "[6]; [15]", "result": 1130, "unit": "µM"}, {"measurement": "IC50", "setting": "[6]; [16]", "result": 1050, "unit": "µM"}, {"measurement": "IC50", "setting": "[6]; [17]", "result": 1070, "unit": "µM"}, {"measurement": "IC50", "setting": "[7]; read-out: Relative IC50", "result": 1330, "unit": "µM"}, {"measurement": "IC50", "setting": "[7]; [14]", "result": 987, "unit": "µM"}, {"measurement": "IC50", "setting": "[8]; [14]", "result": 795, "unit": "µM"}, {"measurement": "IC50", "setting": "[8]; read-out: Relative IC50", "result": 1070, "unit": "µM"}, {"measurement": "IC50", "setting": "[9]; read-out: Relative IC50", "result": 1210, "unit": "µM"}, {"measurement": "IC50", "setting": "[9]; [14]", "result": 966, "unit": "µM"}, {"measurement": "IC50", "setting": "[10]; [14]", "result": 1040, "unit": "µM"}, {"measurement": "IC50", "setting": "[10]; read-out: Relative IC50", "result": 1640, "unit": "µM"}, {"measurement": "IC50", "setting": "[11]; read-out: Relative IC50", "result": 1400, "unit": "µM"}, {"measurement": "IC50", "setting": "[11]; [14]", "result": 1230, "unit": "µM"}, {"measurement": "IC50", "setting": "[12]; [16]", "result": 1930, "unit": "µM"}, {"measurement": "IC50", "setting": "[12]; [15]", "result": 2110, "unit": "µM"}, {"measurement": "IC50", "setting": "[12]; [17]", "result": 3410, "unit": "µM"}, {"measurement": "Reduction of low-density lipoprotein cholesterol (LDL-C)", "setting": "[13]", "result": "15-20%"}, {"measurement": "Reduction of triglycerides", "setting": "[13]", "result": "30-50%"}]}]}
